Test results from article PMC3726336, “Product inhibition of cellulases studied with ^14C-labeled cellulose substrates” (Biotechnology for Biofuels, 2013).
Where two headings read alike, the source gives them in different places.

Experiments:
CtCel7A = CtCel7A (Chaetomium thermophilum, UniProt A7WNU1); test: Inhibition of synergistic hydrolysis of 14C-BC by CtCel7A (supplemented with EG TrCel5A); format: biochemical; details: 14C-BC substrate, read-out: IC50 for cellobiose
Experimental: To study the cellobiose inhibition of GH7 CBHs, the synergistic hydrolysis of ^14C-BC in the presence of added cellobiose was followed (Figure 3, Additional file 1: Figures S1 and S2). Because the cellobiose inhibition of the EG TrCel5A is much weaker than that of GH7 CBHs, the inhibition of synergistic hydrolysis apparently reflects the inhibition of CBH. The strength of cellobiose inhibition was analyzed using plots of (DCB/DCB=0) versus [cellobiose], where DCB and DCB=0 represent the degree of conversion of ^14C-BC in the presence and absence of cellobiose, respectively (Figure 4, Additional file 1: Figure S3). In the case of experiments without added cellobiose, the reactions were provided with N188BG to prevent the inhibition of the CBH by the cellobiose released during hydrolysis. Experiments with no added cellobiose and without BG were also conducted. […] Therefore, the concentration of the cellobiose released during hydrolysis was added to the concentration of externally supplied cellobiose in generating the plots in Figure 4 and Additional file 1: Figure S3. For the calculation of IC50 values, the data were first fitted to hyperbolae:
where [CB] is the concentration of cellobiose; [^14CBC] is the concentration of ^14C-BC used in the experiment; and C1, C2 and H are empirical constants. Equation 5 differs from Equation 1 by the presence of constant H. H was included to improve the fit and is a constant that accounts for the background radioactivity (the degree of conversion that is independent of CBH). The degree of conversion resulting from the activity of the EG was measured in a separate experiment (Additional file 1: Figure S4) and was subtracted from the degree of conversion resulting from the synergistic hydrolysis. Thus, in the case of complete inhibition, H should have a value of zero. […] Provided with the values of C1, C2 and H, the value of IC50 was calculated as follows: […]
Using the time course data measured in the presence and absence of cellobiose, the IC50 values were first found separately for each time point (Figure 4A). […]

TrCel5A = target: T1, TrCel5A (Trichoderma reesei, UniProt P07982); test: Cellobiose inhibition of hydrolysis of 14C-amorphous cellulose by TrCel5A; format: biochemical; details: TrCel5A (5.0 nM), 35°C, not accountable by Equation 5
T1 construct: TrCel7B, TrCel5A, and TrCel12A were purified from the culture filtrate of Tr QM 9414; made in house; host or cells: Trichoderma reesei QM 9414 culture filtrate (native producer)
T1 sequence (P07982 22-418): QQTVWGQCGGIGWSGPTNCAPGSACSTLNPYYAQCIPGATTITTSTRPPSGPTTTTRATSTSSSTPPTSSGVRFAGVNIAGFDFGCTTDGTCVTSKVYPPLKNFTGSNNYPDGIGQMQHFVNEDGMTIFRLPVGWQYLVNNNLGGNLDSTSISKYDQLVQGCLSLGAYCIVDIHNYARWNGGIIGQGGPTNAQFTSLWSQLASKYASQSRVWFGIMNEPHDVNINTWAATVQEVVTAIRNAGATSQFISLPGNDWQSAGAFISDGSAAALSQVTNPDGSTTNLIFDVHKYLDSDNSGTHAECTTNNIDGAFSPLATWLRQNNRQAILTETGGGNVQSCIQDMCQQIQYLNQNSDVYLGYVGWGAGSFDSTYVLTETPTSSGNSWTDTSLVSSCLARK
From the text: EGs are a diverse group of enzymes present in all efficient cellulase systems. Their best recognized function is their synergism with CBHs. Depending on the conditions, the degree of synergistic effect may be more than 10-fold. Therefore, the inhibition of the EG component may result in a drastic decrease in the rate of the synergistic hydrolysis of cellulose. The main soluble product of the EG-catalyzed cellulose hydrolysis is cellobiose, but some glucose and higher-order oligosaccharides are also produced. Here, we studied the cellobiose inhibition of the EGs TrCel7B, TrCel5A and TrCel12A with ^14C-amorphous cellulose substrate. The enzyme concentrations and hydrolysis times were adjusted so that the linear region of the time course was studied. The time courses for the hydrolysis of ^14C-amorphous cellulose by TrCel7B in the presence and absence of added cellobiose are shown in Figure 9A. For the results with TrCel5A and TrCel12A, see Additional file 1: Figure S5. […] This figure is reasonably well in line with that measured for TrCel7B on amorphous cellulose using isothermal titration calorimetry. […]
EGs were assessed on ^14C-amorphous cellulose. ^14C-amorphous cellulose (0.5 g l^-1) was incubated (with shaking at 700 rpm) with EG in 50 mM sodium acetate buffer, pH 5.0, containing BSA (0.1 g l^-1) in the presence and absence of added cellobiose. […]

TrCel7A = target: T2, TrCel7A (Trichoderma reesei, UniProt P62694); parameters: method as in PMID 22733813; details: read-out: IC50 for cellobiose, 14C-BC substrate, 25°C; cited from earlier work
T2 construct: TrCel7A was purified from the culture filtrate of Tr QM 9414 as described previously; made in house; host or cells: Trichoderma reesei QM 9414 culture filtrate (native producer)
T2 sequence (P62694 18-513): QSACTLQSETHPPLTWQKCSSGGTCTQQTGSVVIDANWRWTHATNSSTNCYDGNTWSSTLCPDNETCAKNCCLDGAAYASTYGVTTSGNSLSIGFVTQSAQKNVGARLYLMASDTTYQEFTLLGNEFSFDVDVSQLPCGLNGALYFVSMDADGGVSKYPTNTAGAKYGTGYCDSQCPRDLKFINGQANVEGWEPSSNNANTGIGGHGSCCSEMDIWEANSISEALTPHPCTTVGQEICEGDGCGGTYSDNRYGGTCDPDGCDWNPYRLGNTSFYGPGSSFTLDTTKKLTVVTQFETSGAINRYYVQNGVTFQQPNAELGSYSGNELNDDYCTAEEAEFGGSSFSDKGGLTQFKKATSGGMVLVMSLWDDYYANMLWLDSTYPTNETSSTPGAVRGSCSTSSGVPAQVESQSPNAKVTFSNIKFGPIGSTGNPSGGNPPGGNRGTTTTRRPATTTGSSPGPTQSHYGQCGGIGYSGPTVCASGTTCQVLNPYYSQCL

Sequence of CtCel7A (A7WNU1 entry or part of it): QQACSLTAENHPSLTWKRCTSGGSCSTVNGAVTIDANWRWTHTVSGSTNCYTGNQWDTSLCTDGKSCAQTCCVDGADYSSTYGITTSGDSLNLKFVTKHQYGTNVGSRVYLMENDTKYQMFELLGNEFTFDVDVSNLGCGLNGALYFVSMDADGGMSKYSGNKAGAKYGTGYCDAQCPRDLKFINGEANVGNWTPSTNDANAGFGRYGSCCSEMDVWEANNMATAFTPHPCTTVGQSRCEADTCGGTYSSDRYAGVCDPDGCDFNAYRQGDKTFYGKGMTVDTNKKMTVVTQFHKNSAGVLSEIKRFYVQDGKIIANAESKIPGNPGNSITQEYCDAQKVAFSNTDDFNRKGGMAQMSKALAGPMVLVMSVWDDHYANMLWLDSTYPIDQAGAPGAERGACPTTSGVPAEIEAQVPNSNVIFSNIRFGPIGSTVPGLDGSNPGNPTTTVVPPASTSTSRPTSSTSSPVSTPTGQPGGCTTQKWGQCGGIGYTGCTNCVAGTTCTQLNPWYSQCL

O=C[C@H](O)[C@@H](O)[C@H](O[C@@H]1O[C@H](CO)[C@@H](O)[C@H](O)[C@H]1O)[C@H](O)CO [cellobiose, Cellobiose]
IC50 (CtCel7A; 25°C): 410 ± 60 µM | IC50 (CtCel7A; 35°C): 1080 ± 220 µM | IC50 (CtCel7A; 50°C, IC50 increased with hydrolysis time): 2480 ± 910 µM | IC50 (approximate, by visual inspection of Figure 9B) (TrCel5A): few hundred millimolar range | IC50 (TrCel7A): 380 ± 30 µM
